Data published in patent US10487056B2, “Small molecule androgen receptor inhibitors and methods of use thereof” (GEORGETOWN UNIVERSITY, priority 2015, dated 2019).

Assays:
Assay type in all cases: cell-based
AR [1] = experiment: 22Rv1-ARE-luc androgen-response element luciferase reporter assay; details: 24 hours
Description: VCaP and CWR22Rv1 (referred to as 22Rv1) cells were transduced with ARE-luciferase Cignal Lenti Pathway Reporter (Qiagen; Valencia, Calif.) and cultured as described above in the presence of 1 μg/mL puromycin. Following antibiotic selection, cells stably expressing ARE-luciferase were isolated, cloned and cultured to generate a stable ARE-reporter cell lines.

hTERT promoter = experiment: hTERT promoter-luciferase reporter in 22Rv1 cells; details: 2.5 μM, 24 hours
Description: (§1) 22Rv1 cells were transfected with hTERT promoter-luciferase reporter construct and Renilla luciferase plasmids (pRL-TK-Luc) and treated with 2.5 μM of SH-I-125 for 24 hours. Promoter activity was determined after normalization with Renilla luciferase activity. Columns, mean of three independent experiments with quadruplicate samples; bars, SEM.

c-myc promoter = experiment: c-myc promoter-luciferase reporter in 22Rv1 cells; details: 1 μM, 24 hours
Description: as §1, with “c-myc” for “hTERT”, “1” for “2.5”

[2] = test system: estrogen response element; experiment: Estrogen response element (ERE) luciferase reporter in 22Rv1 cells; details: 1 μM, 24 hours
Description: as §1, with “ERE” for “hTERT”, “1” for “2.5”

AR and AR-V7 [3] = experiment: Immunofluorescence staining of AR and AR-V7 in 22Rv1 cells; details: SH-I-125 1 μM, 24 hours
Description: […]. Androgen receptor (AR) and PSA expression levels were assessed.
(§2) Immunofluorescence staining was performed as described in Amin et al., Mol. Cancer Ther., 13:341-52 (2014).
22Rv1 cells represent a commonly observed castration-resistant phenotype, including androgen-independent growth and the expression of AR splice variants, such as AR-V7. […]. […] […].

[4] = target: T1, AR NTD-Gal4DBD fusion protein (Homo sapiens, UniProt P10275); experiment: AR NTD-Gal4DBD / Gal4UAS-luciferase reporter in VCaP cells, forskolin-induced; details: forskolin 50 μM, 24 hours
T1 construct: expressed in transfected cells; host or cells: VCaP
T1 sequence (P10275 with tags, fused parts or gaps limits assumed): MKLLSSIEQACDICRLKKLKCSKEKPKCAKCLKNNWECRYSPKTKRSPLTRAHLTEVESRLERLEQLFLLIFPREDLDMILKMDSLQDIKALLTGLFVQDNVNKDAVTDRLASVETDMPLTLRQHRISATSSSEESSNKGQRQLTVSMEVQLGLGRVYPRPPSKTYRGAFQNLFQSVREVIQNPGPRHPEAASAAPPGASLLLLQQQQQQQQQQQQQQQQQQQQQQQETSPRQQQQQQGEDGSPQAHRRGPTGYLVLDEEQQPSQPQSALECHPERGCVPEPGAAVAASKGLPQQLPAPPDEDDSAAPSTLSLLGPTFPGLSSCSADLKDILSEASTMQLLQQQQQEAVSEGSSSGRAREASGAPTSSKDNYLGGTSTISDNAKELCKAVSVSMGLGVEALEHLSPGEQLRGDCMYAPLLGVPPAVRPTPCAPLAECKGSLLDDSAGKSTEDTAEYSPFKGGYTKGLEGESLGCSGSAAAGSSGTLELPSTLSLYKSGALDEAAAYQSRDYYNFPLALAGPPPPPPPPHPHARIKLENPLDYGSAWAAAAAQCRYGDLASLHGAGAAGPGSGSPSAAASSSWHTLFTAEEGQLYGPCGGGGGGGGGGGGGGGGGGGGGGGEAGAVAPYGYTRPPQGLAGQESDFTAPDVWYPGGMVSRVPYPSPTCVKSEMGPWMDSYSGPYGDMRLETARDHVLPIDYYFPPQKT
Description: VCaP cells were co-transfected with AR-NTD-Gal4DBD expression vector and Gal4UAS-TATA-luciferase reporter construct and optionally treated with forskolin (FSK) (50 μM) for 24 hours.
The N-terminal domain of the AR (AR NTD) is known to be its transactivation domain, essential for ligand-independent AR activation.

[5] = test system: VP16-Gal4DBD fusion protein; experiment: VP16-Gal4DBD / UAS-luc reporter, negative control; details: SH-I-125 1 μM, 24 hours
Description: 22Rv1 cells were co-transfected with VP16 activation domain-Gal4DBD fusion protein and Gal4UAS-TATA-luciferase reporter and treated with SH-I-125 (1 μM) for 24 hours. Luciferase activity was measured and normalized with Renilla luciferase. Columns, mean of three independent experiments with quadruplicate samples; bars, SEM.
The N-terminal domain of the AR (AR NTD) is known to be its transactivation domain, essential for ligand-independent AR activation. Mahanine is able to inhibit AR activation induced by ligand-independent mechanisms such as forskolin and interleukin-6, which activate the AR NTD. […] As a negative control, a constitutively active VP16-Gal4DBD fusion protein and the UAS-luc reporter were co-expressed in […]. […] […].

22Rv1 cells = experiment: Live and dead cell staining, 22Rv1 cells; details: SH-I-125 1 μM, 3 days
Description: (§3) Live and dead cells were determined using a Cell Viability/Cytotoxicity Assay kit (Biotium Inc.; Hayward, Calif.).
(§4) To determine the effects of SH-I-125 on prostate cancer cell growth, 22Rv1 cells were treated with SH-I-125 and cell viability was measured after a period of 3 days. […]. In comparison, non-tumorigenic primary prostate epithelial cells (PrEC) retained 80% viability in the presence of a similar range of doses of SH-I-125, showing that tumorigenic cells are more susceptible to the growth inhibitory properties of SH-I-125 compared to non-tumorigenic cells (FIG. 8B). […] Staurosporine was used as a positive control for cell death induction in live and dead assays (FIG. 9C).

PrEC = experiment: Live and dead cell staining, PrEC cells; details: SH-I-125 5 μM, 3 days
Description: as §3, §4

VCaP cells = experiment: Caspase-Glo 3/7 activity assay, VCaP cells; details: 3 days
Description: Caspase 3/7 activity was measured using Caspase-Glo 3/7 substrates. Data represent mean of three independent experiments with quadruplicate samples; bars, SEM. ***, p value <0.001 determined by ANOVA.

AR and AR-V7 [6] = experiment: Western blot of AR and AR-V7 levels in 22Rv1 cells
Description: AR levels were assessed by Western blotting. β-actin was used as a loading control.
(§5) AR and AR-V7 levels were assessed. β-actin was used as a loading control.
as §5
MG132 (5 μM), a known proteasome inhibitor, was added on Day 2. AR expression was assessed by Western blotting. β-actin was used as a loading control.

VCaP-MDVR cells [7] = experiment: Cell viability (MTT), VCaP-MDVR cells; details: MDV3100, ARN-509 10 μM, SH-I-125 range, 3 days
Description: Cell viability was measured using the MTT assay.
Cells were treated in the manner indicated below for the specified period of time.

VCaP-MDVR cells [8] = experiment: Caspase-Glo 3/7 activity assay, VCaP-MDVR cells; details: SH-I-125 1 μM, 3 days
Description: (§6) Caspase 3/7 activity was measured using Caspase-Glo 3/7 substrates. Data represent mean of three independent experiments with quadruplicate samples; bars, SEM.
(§7) The emergence of resistance to clinical anti-androgens is an ongoing problem in the treatment of castration-resistant prostate cancer.

22Rv1-MDVR cells = experiment: Caspase-Glo 3/7 activity assay, 22Rv1-MDVR cells; details: SH-I-125 1 μM, 3 days
Description: as §6, §7

AR [9] = experiment: VCaP-MDVR-ARE-luc luciferase reporter assay; details: VCaP-MDVR-ARE-luc cells, range of doses, 24 hours
Description: […]. Luciferase activity was measured and plotted as a percentage of control. Data represent the mean of three independent experiments with quadruplicate samples; bars, SEM. ***, p value <0.001 determined by ANOVA.
VCaP-MDVR and 22Rv1-MDVR stably expressing ARE-luciferase construct (VCaP-MDVR-ARE-luc and 22Rv1-MDVR-ARE-luc) were generated as described above in the Materials and Methods section. […].

AR [10] = experiment: Immunofluorescence staining of AR in 22Rv1-MDVR cells; details: MDV3100 10 μM, ARN509 10 μM or SH-I-125 1 μM, 24 hours
Description: […]. AR and AR-V7 expression levels were assessed.
as §2

COc1ccc2c(c1)[nH]c1c(C)c(OS(=O)(=O)c3cccc4ccccc34)ccc12 [SH-I-125, 7-methoxy-1-methyl-9H-carbazol-2-yl naphthalene-1-sulfonate]
potency relative to mahanine on AR signaling (ARE-luc) (AR [1]): more potent than mahanine
ARE-luciferase activity (AR [1]; range of doses): almost completely abolishing ARE-luciferase activity
hTERT promoter-luciferase activity (hTERT promoter): unaffected
c-myc promoter-luciferase activity (c-myc promoter): unaffected
ERE promoter-luciferase activity [2]: unaffected
nuclear localization of AR and AR-V7 (AR and AR-V7 [3]): decreased the nuclear localization of AR and AR-V7
forskolin-induced AR activation (AR NTD-Gal4DBD luciferase) [4]: significantly inhibited forskolin-induced AR activation
VP16-Gal4DBD luciferase activity [5]: did not affect luciferase activity
live and dead cell staining (22Rv1 cells): killed 22Rv1 cells
live and dead cell staining (PrEC): mostly unaffected
caspase 3/7 activity (VCaP cells): induced caspase activity
cellular AR and AR-V7 levels (AR and AR-V7 [6]; 3 days, SH-I-125 at 1 μM): reduced AR and AR-V7 levels
AR and AR splice variant levels in the presence of proteasome inhibitor MG132 (AR and AR-V7 [6]; SH-I-125 plus MG132): Proteasome inhibition rescued the decline
cell growth / viability (VCaP-MDVR cells [7]): effective in preventing the growth
caspase 3/7 activation (VCaP-MDVR cells [8]): inducing caspase activation
caspase 3/7 activation (22Rv1-MDVR cells): inducing caspase activation
inhibitory effect on AR activity (luciferase) (AR [9]): retained its inhibitory effect
AR nuclear localization (AR [10]): decreased AR nuclear levels
